Reference: patent US20260234403A1, “PHOTOACTIVE FLUORESCENT COMPOUNDS AND USE THEREOF FOR LABELING OF PROTEINS” (EIKON THERAPEUTICS, INC., priority 2023, published 2026)

Tests used:
[1] = tested on: histone H2B-HaloTag fusion; test: Halo-protein specificity (Specificity Factor), single molecule spot detection; format: cell-based; conditions: ratio of slope (spots vs dye concentration, 200 nM to 1 nM, 45 minutes) relative to PA-JF549; WT and H2B-HaloTag U2OS cells
Text: Images were collected every 10 msec for 5 seconds per field of view and pulses of ascending intensity 405 nm light (between 0 and 12 mW at the coverslip) were used to photoactivate dye molecules.
For each dye compound, a linear regression was used to determine the relationship between the concentration of dye compound and the number of fluorescence spots detected on the microscope, where in WT cells the ideal dye would have no correlation between compound concentration and number of slots measured. The Specificity Factor was calculated as the ratio of the slope of the compound in question relative to the slope calculated for PA-JF549 and is shown in Table 3 below.

[2] = tested on: Wild-type (WT) U2OS cells; test: Reduction in nonspecific labeling of WT cells (number of tracks vs PA-JF549); format: cell-based; conditions: 100 nM, 1 hr, ratio with PA-JF549 in the numerator
Procedure: Using the methods described in Tables 4a and 4b above, labelling specificity of the compound of Examples 1-28 was measured and compared to PA-JF549. U2OS cells wild type or expressing ER-HaloTag fusion were incubated with PA-JF549 or Examples 1-28 for 1 hr. […] Labeling specificity, as measured by the fold reduction in nonspecific labeling of WT cells, was calculated by number of tracks measured in WT cells for Examples 1-28 compared to the number of tracks in WT cells for PA-JF549, expressed as the ratio with PA-JF549 in the numerator.

[3] = Table 4b, Example 19 with 642 nm light

Molecule | Specificity Factor [1] | Fold reduction in nonspecific labeling ([2]; Table 4a) | Fold reduction in nonspecific labeling [2, 3]
COC[C@H]1CCN1c1ccc2c(c1)Oc1cc(N3CC[C@@H]3COC)ccc1C21C(=[N+]=[N-])C(=O)c2ccc(C(=O)NCCOCCOCCCCCCCl)cc21 [Example 3, N-(2-(2-((6-chlorohexyl)oxy)ethoxy)ethyl)-2-diazo-3′,6′-bis((R)-2-(methoxymethyl)azetidin-1-yl)-3-oxo-2,3-dihydrospiro[indene-1,9′-xanthene]-6-carboxamide] | 2.07 | 1-5 | 1-5
CN(C)C(=O)C1CN(c2ccc3c(c2)Oc2cc(N4CC(C(=O)N(C)C)C4)ccc2C32C(=[N+]=[N-])C(=O)c3ccc(C(=O)NCCOCCOCCCCCCCl)cc32)C1 [Example 4, 1,1′-(6-((2-(2-((6-chlorohexyl)oxy)ethoxy)ethyl)carbamoyl)-2-diazo-3-oxo-2,3-dihydrospiro[indene-1,9′-xanthene]-3′,6′-diyl)bis(N,N-dimethylazetidine-3-carboxamide)] | 23.8 | >10 | >10
[N-]=[N+]=C1C(=O)c2ccc(COCCOCCOCCCCCCCl)cc2C12c1ccc(N3CCC3)cc1Oc1cc(N3CCC3)ccc12 [Example 27, 3′,6′-di(azetidin-1-yl)-6-((2-(2-((6-chlorohexyl)oxy)ethoxy)ethoxy)methyl)-2-diazospiro[indene-1,9′-xanthen]-3(2H)-one] |  |  | <1
COC(=O)C1CN(c2ccc3c(c2)Oc2cc(N4CC(C(=O)OC)C4)ccc2C32C(=[N+]=[N-])C(=O)c3ccc(C(=O)NCCOCCOCCCCCCCl)cc32)C1 [Reference Example 1, dimethyl 1,1′-(6-((2-(2-((6-chlorohexyl)oxy)ethoxy)ethyl)carbamoyl)-2-diazo-3-oxo-2,3-dihydrospiro[indene-1,9′-xanthene]-3′,6′-diyl)bis(azetidine-3-carboxylate)] | 2.66 | >10 | >10
[N-]=[N+]=C1C(=O)c2ccc(C(=O)NCCOCCOCCCCCCCl)cc2C12c1ccc(N3CC(C(=O)O)C3)cc1Oc1cc(N3CC(C(=O)O)C3)ccc12 [Reference Example 2, 1,1′-(6-((2-(2-((6-chlorohexyl)oxy)ethoxy)ethyl)carbamoyl)-2-diazo-3-oxo-2,3-dihydrospiro[indene-1,9′-xanthene]-3′,6′-diyl)bis(azetidine-3-carboxylic acid)] | <1 | >10 | >10
(E)-3′,6′-di(azetidin-1-yl)-6-(4-(2-((6-chlorohexyl)oxy)ethoxy)but-1-en-1-yl)-2-diazospiro[indene-1,9′-xanthen]-3(2H)-one and (Z)-3′,6′-di(azetidin-1-yl)-6-(4-(2-((6-chlorohexyl)oxy)ethoxy)but-1-en-1-yl)-2-diazospiro[indene-1,9′-xanthen]-3(2H)-one [Example 23] |  |  | >10
